Measured values as given in patent US8722887B2, “Sulfonylpyrazole and sulfonylpyrazoline carboxamidine derivatives as 5-HT6 antagonists” (Abbvie Bahamas, Ltd., priority 2006, dated 2014).
Where two headings read alike, the source gives them in different places.

What was measured:
5-HT6 receptor [1] = target: T1, 5-HT6 receptor (Homo sapiens, UniProt P50406); assay: In vitro affinity for human 5-HT6 receptors, [3H]-LSD binding in CHO cell membranes; set-up: host or cells: CHO/Gα16/mtAEQ/h5HT6-A1 (CHO AequoScreen recombinant cell line)
T1 sequence (P50406 whole entry): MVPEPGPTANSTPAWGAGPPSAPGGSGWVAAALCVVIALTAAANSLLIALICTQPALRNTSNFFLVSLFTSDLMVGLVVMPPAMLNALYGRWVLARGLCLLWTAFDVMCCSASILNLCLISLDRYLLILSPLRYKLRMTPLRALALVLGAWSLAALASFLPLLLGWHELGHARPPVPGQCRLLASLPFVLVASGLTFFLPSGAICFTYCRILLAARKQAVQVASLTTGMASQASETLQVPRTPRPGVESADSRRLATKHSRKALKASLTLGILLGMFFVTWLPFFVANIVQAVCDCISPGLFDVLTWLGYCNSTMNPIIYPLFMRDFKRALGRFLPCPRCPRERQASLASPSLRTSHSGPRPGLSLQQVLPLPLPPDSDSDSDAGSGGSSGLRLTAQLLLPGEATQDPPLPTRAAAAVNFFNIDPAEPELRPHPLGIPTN

5-HT6 receptor [2] = target: T1, 5-HT6 receptor; assay: In vitro functional activity (antagonism) on human 5-HT6 receptors, CHO-human-5HT6-Aequorin assay; type: cell-based; set-up: host or cells: CHO/Gα16/mtAEQ/h5HT6-A1 (CHO AequoScreen recombinant cell line)
[3] = [3H]-LSD 5.0 nM, membranes of CHO cells transfected with human 5-HT6, read-out: 5-HT6 pKi (converted)
[4] = antagonism of 10^-8 M α-methylserotonin induced luminescence, CHO-human-5HT6-Aequorin cells
[5] = antagonism of 10^-8 M α-methylserotonin induced luminescence, CHO-human-5HT6-Aequorin cells, read-out: 5-HT6 pA2 (converted)

Row | Ki (5-HT6 receptor [1]; [3]) | Kb (5-HT6 receptor [2]; [5]) | SMILES | further results
1 | 158 nM | – | CCN/C(=N\S(=O)(=O)c1cccc(Cl)c1)N1N=CC(C)C1c1ccccc1 (stereo not drawn) [compound 152] | –
2 | 7.94 nM | – | CCN/C(=N\S(=O)(=O)c1cccc(Cl)c1)N1N=CCC1c1ccco1 (stereo not drawn) [compound 144] | 5-HT6 pA2 (5-HT6 receptor [2]; [4]): 8.1
3 | 501 nM | – | CCN/C(=N\S(=O)(=O)c1cccc(Cl)c1)N1N=CCC1c1ccncc1 (stereo not drawn) [compound 148] | 5-HT6 pA2 (5-HT6 receptor [2]; [4]): 6.9
4 | 398 nM | – | CCN/C(=N\S(=O)(=O)c1cccc(Cl)c1)N1N=CC(CC)C1c1ccccc1 (single isomer, unassigned) [trans-(−)-153] | –
5 | 158 nM | – | CCN/C(=N\S(=O)(=O)c1cccc(Cl)c1)N1N=CC(CC)C1c1ccccc1 (stereo not drawn) [compound 153] | –
6 | 200 nM | 501 nM | CCN/C(=N\S(=O)(=O)c1cccc(Cl)c1)N1N=C(C(C)C)CC1c1ccccc1 (stereo not drawn) [compound 151] | –
7 | 100 nM | – | CCN/C(=N\S(=O)(=O)c1ccc(N(C)C)cc1)N1CC(CC)C=N1 (stereo not drawn) [compound 174] | –
8 | 31.6 nM | 31.6 nM | CCN/C(=N\S(=O)(=O)c1cccc(Cl)c1)N1N=CCC1c1cccs1 (stereo not drawn) [compound 150] | –
9 | 200 nM | – | CCN/C(=N\S(=O)(=O)c1cccc(Cl)c1)N1CC(c2ccccc2)C(C)=N1 (stereo not drawn) [compound 140] | –
10 | 316 nM | 794 nM | CCN/C(=N\S(=O)(=O)c1cccc(Cl)c1)N1N=CCC1c1ccccn1 (stereo not drawn) [compound 147] | –
11 | 20 nM | 39.8 nM | CCN/C(=N\S(=O)(=O)c1cccc(Cl)c1)N1N=CCC1c1ccoc1 (stereo not drawn) [compound 146] | –
12 | 63.1 nM | 12.6 nM | CCN/C(=N\S(=O)(=O)c1c(Cl)nc2sccn12)N1CC2(C=N1)CCOCC2 [compound 162] | –
13 | 316 nM | – | CCN/C(=N\S(=O)(=O)N(C)c1ccccc1)N1CC(CC)C=N1 (stereo not drawn) [compound 172] | –
14 | 79.4 nM | 200 nM | CN/C(=N\S(=O)(=O)c1cccc(Cl)c1)N1CC2(C=N1)CCOCC2 [compound 160] | –
15 | 316 nM | – | CCN/C(=N\S(=O)(=O)c1cccc(Cl)c1)N1CC(CCC(F)(F)F)(CCC(F)(F)F)C=N1 [compound 168] | –
16 | 251 nM | 316 nM | CCN/C(=N\S(=O)(=O)c1cccc(Cl)c1)N1CC(c2ccccc2)C=N1 (stereo not drawn) [compound 139] | –
17 | 100 nM | 79.4 nM | CN/C(=N\S(=O)(=O)c1ccc(Cl)s1)N1CC2(C=N1)CCOCC2 [compound 166] | –
18 | 6.31 nM | 7.94 nM | CCN/C(=N\S(=O)(=O)c1cccc(Cl)c1)N1CC2(C=N1)CCN(C)CC2 [compound 157] | –
19 | 251 nM | 10 nM | CN/C(=N\S(=O)(=O)c1c(Cl)nc2sccn12)N1CC2(C=N1)CCOCC2 [compound 163] | –
20 | 10 nM | 3.98 nM | CCN/C(=N\S(=O)(=O)c1cccc(Cl)c1)N1N=CC2CN(C)CCC21 (stereo not drawn) [compound 154] | –
21 | 31.6 nM | 12.6 nM | CCN/C(=N\S(=O)(=O)c1cccc(Cl)c1)N1N=CCC1c1cccnc1 (stereo not drawn) [compound 145] | –
22 | 63.1 nM | 31.6 nM | N/C(=N\S(=O)(=O)c1ccc(Cl)s1)N1CC2(C=N1)CCOCC2 [compound 167] | –
23 | 12.6 nM | 31.6 nM | CCN/C(=N\S(=O)(=O)c1cccc(Cl)c1)N1N=CCC1c1ccsc1 (stereo not drawn) [compound 149] | –
24 | 79.4 nM | 100 nM | N/C(=N\S(=O)(=O)c1cccc(Cl)c1)N1CC2(C=N1)CCOCC2 [compound 161] | –
25 | 126 nM | – | CCN/C(=N\S(=O)(=O)c1cccc(Cl)c1)N1N=CC(CC)C1c1ccccc1 (single isomer, unassigned) [trans-(+)-153] | –
26 | 50.1 nM | 39.8 nM | N/C(=N\S(=O)(=O)c1c(Cl)nc2sccn12)N1CC2(C=N1)CCOCC2 [compound 164] | –
27 | 25.1 nM | 20 nM | CCN/C(=N\S(=O)(=O)c1ccc(Cl)s1)N1CC2(C=N1)CCOCC2 [compound 165] | –

More lines, now with the values behind:

Row | SMILES | Ki (5-HT6 receptor [1]; [3]) | Kb (5-HT6 receptor [2]; [5]) | further results
28 | CCN/C(=N\S(=O)(=O)c1c(Cl)nc2sccn12)N1CC(C)(C)C=N1 [compound 114] | – | – | melting point: 139 to 141 °C
29 | CCN/C(=N\S(=O)(=O)c1cccc(Cl)c1)N1N=CC(CC)C1c1ccccc1 (single isomer, unassigned) [cis(+)-153] | 1260 nM | – | –
30 | CCC1C=NN(/C(N)=N/S(=O)(=O)c2cccc(Cl)c2)C1 (stereo not drawn) [compound 29] | – | – | melting point: 141 to 142 °C
31 | N/C(=N\S(=O)(=O)c1c(Cl)nc2sccn12)N1CC2(C=N1)CCCC2 [compound 131] | – | – | melting point: 174 to 177 °C
32 | CN(C)/C(=N\S(=O)(=O)c1ccc(F)cc1)N1CCC(c2ccc(Cl)cc2)=N1 [compound 137] | – | – | melting point: 149 to 150 °C
33 | CCN/C(=N\S(=O)(=O)c1cccc(Cl)c1)N1N=CC(CC)C1c1ccccc1 (single isomer, unassigned) [cis(−)-153] | 50.1 nM | – | –
34 | CCC1C=NN(/C(=N/S(=O)(=O)c2ccccc2Cl)Nc2ccccc2)C1 (stereo not drawn) [compound 12] | – | – | melting point: 128 to 130 °C
35 | CCN/C(=N\S(=O)(=O)c1ccccc1Cl)N1CC(CC)C=N1 (stereo not drawn) [compound 2, 2-Chloro-N-[ethylamino-(4-ethyl-4,5-dihydro-pyrazol-1-yl)-methylene]-benzenesulfon-amide] | 50.1 nM | 3.16 nM | –
36 | CC1(C)C=NN(/C(N)=N/S(=O)(=O)c2c(Cl)nc3sccn23)C1 [compound 127] | – | – | melting point: 198 to 199 °C
37 | CCN/C(=N\S(=O)(=O)c1cccs1)N1CC(CC)C=N1 (stereo not drawn) [compound 51] | 126 nM | 200 nM | –
38 | CCC1C=NN(/C(=N/S(=O)(=O)c2ccccc2Cl)NCC2CCNCC2)C1 (stereo not drawn) [compound 11] | – | – | melting point: 131 to 138 °C
39 | CCC1C=NN(/C(=N/S(=O)(=O)c2ccccc2Cl)N(CC)CC)C1 (stereo not drawn) [compound 1] | – | – | Kb (5-HT6 receptor [2]): 316 nM
40 | CN/C(=N\S(=O)(=O)c1ccc(Cl)s1)N1CC(C)(C)C=N1 [compound 103] | 79.4 nM | 50.1 nM | –
41 | CCN/C(=N\S(=O)(=O)c1cccc(Cl)c1)N1CC(C)(C)C=N1 [compound 33, 3-Chloro-N-[(4,4-dimethyl-4,5-dihydro-pyrazol-1-yl)-ethylamino-methylene]-benzenesulfonamide] | 15.8 nM | 12.6 nM | –
42 | CCN/C(=N\S(=O)(=O)c1c(Cl)nc2sccn12)N1CC(CC)C=N1 (single isomer, unassigned; (+)) [(+)-41] | – | 1.26 nM | –
43 | CCN/C(=N\S(=O)(=O)c1cc2ccccc2s1)N1CC(CC)C=N1 (stereo not drawn) [compound 89] | 5.01 nM | 0.794 nM | –
44 | CCN/C(=N\S(=O)(=O)c1cccc2nsnc12)N1CC(CC)C=N1 (stereo not drawn) [compound 78, Benzo[1,2,5]thiadiazole-4-sulfonic acid ethylamino-(4-ethyl-4,5-dihydro-pyrazol-1-yl)-methyleneamide] | 63.1 nM | 79.4 nM | –
45 | CCN/C(=N\S(=O)(=O)c1ccc(Cl)s1)N1CC(C)(C)C(C)=N1 [compound 112] | 200 nM | 63.1 nM | –
46 | CCN/C(=N\S(=O)(=O)c1cccc(Cl)c1)N1CCC(C)=N1 [compound 42] | – | – | 5-HT6 pA2 (5-HT6 receptor [2]; [4]): 6.9; Ki (5-HT6 receptor [1]; 5-HT6 pKi): 200 nM
47 | CCC1C=NN(/C(=N/S(=O)(=O)c2ccccc2Cl)NCc2ccccc2)C1 (stereo not drawn) [compound 13] | 79.4 nM | 200 nM | –
48 | CCN/C(=N\S(=O)(=O)c1ccccc1Cl)N1CCCC1 [reference compound] | – | – | Kb (5-HT6 receptor [2]): > 10000 nM
49 | CCN/C(=N\S(=O)(=O)/C=C/c1ccccc1)N1CC(CC)C=N1 (stereo not drawn) [compound 83] | 79.4 nM | 63.1 nM | –
50 | CCN/C(=N\S(=O)(=O)c1cccc(Cl)c1)N1CCC=N1 [compound 28] | 20 nM | 20 nM | 5-HT6 pA2 (5-HT6 receptor [2]; [4]): 7.1
